# Reference: patent US12642797B2, “Coated granule, solid dispersion, and preparation containing vortioxetine hydrobromide for oral taste masking” (Seasons Biotechnology (Taizhou) Co., Ltd., priority 2019, dated 2026)
# Counter-ions that a name gives are not always drawn.
# Assays:
# oral cavity and tongue = assay: Taste and irritation test by subjects (self-made sample vs reference sample); type: in vivo, human
# Description: In the examples, the taste masking effects of test samples were evaluated by the subject's perception of the bitterness and irritation of the oral cavity and tongue. The Taste and Irritation Classification Tested by the Subjects: [table]
# tongue = assay: Comparative Example 2: comparison of taste of solid dispersion, hemihydrobromide powder and marketed drug product (20 subjects); type: in vivo, human; details: equivalent to 10 mg vortioxetine
# Description: The solid dispersion equivalent to 10 mg vortioxetine prepared in Example 9b, vortioxetine hemihydrobromide powder equivalent to 10 mg vortioxetine, and the powder compressed by vortioxetine hydrobromide marketed drug product equivalent to 10 mg of vortioxetine hydrobromide passed through 100 mesh sieve, then they were put directly in front of the upper part of the tongue for one minute. There were 20 subjects in each powder group. After trying one powder taste, rinsed your mouth, and try another powder after there was no irritation. After trying the taste, record the bitterness level and tongue irritation, spit it out a few seconds later, rinse your mouth, record the time for the irritation to subside, eat 1-1.5 hours later, and record the irritation again.
# [1] = Solubility in sodium acetate medium pH 6.8 simulating the oral environment (USP method); type: physicochemical; details: sodium acetate medium, pH 6.8, aqueous buffer, sodium acetate medium pH 6.8, USP method; read-out: Solubility
# [2] = average of 5 subjects, powder equivalent to 20 mg of vortioxetine
compound,measurement,setting,value
"Br.Cc1ccc(Sc2ccccc2N2CCNCC2)c(C)c1 [Reference sample (1b), vortioxetine hydrobromide form α]",Instantaneous irritation,"oral cavity and tongue; Subject 1, 0-1 minute, powder equivalent to 20 mg of vortioxetine tasted","+++ (+ + + Strong irritation, intolerable)"
same,Delayed irritation,"oral cavity and tongue; Subject 1, powder equivalent to 20 mg of vortioxetine tasted",>30 min
same,Instantaneous irritation,"oral cavity and tongue; Subject 2, 0-1 minute, powder equivalent to 20 mg of vortioxetine tasted","+++ (+ + + Strong irritation, intolerable)"
same,Delayed irritation,"oral cavity and tongue; Subject 2, powder equivalent to 20 mg of vortioxetine tasted",>30 min
same,Instantaneous irritation,"oral cavity and tongue; Subject 3, 0-1 minute, powder equivalent to 20 mg of vortioxetine tasted","+++ (+ + + Strong irritation, intolerable)"
same,Delayed irritation,"oral cavity and tongue; Subject 3, powder equivalent to 20 mg of vortioxetine tasted",>30 min
same,Instantaneous irritation,"oral cavity and tongue; Subject 4, 0-1 minute, powder equivalent to 20 mg of vortioxetine tasted","+++ (+ + + Strong irritation, intolerable)"
same,Delayed irritation,"oral cavity and tongue; Subject 4, powder equivalent to 20 mg of vortioxetine tasted",>30 min
same,Instantaneous irritation,"oral cavity and tongue; Subject 5, 0-1 minute, powder equivalent to 20 mg of vortioxetine tasted","+++ (+ + + Strong irritation, intolerable)"
same,Delayed irritation,"oral cavity and tongue; Subject 5, powder equivalent to 20 mg of vortioxetine tasted",>30 min
same,"Delayed irritation, time to disappear",oral cavity and tongue; [2],more than 30 minutes
same,Instantaneous irritation,oral cavity and tongue; [2],"+++ (+ + + Strong irritation, intolerable)"
Br.Cc1ccc(Sc2ccccc2N2CCNCC2)c(C)c1.Cc1ccc(Sc2ccccc2N2CCNCC2)c(C)c1 [Vortioxetine hemihydrobromide powder],Number of subjects experiencing different irritation: Basically no irritation,tongue,6
same,"Number of subjects experiencing different irritation: Slightly irritating, tolerable",tongue; no irritation after gargling,12^(2)
same,Number of subjects experiencing different irritation: unbearable,"tongue; subside time more than 2 hours, not subsided after eating",2^(1)
Br.Cc1ccc(Sc2ccccc2N2CCNCC2)c(C)c1.Cc1ccc(Sc2ccccc2N2CCNCC2)c(C)c1 [vortioxetine hemihydrobromide],"Delayed irritation, time to disappear",oral cavity and tongue; [2],more than 30 minutes
same,Instantaneous irritation,oral cavity and tongue; [2],"++ (+ + Irritating, tolerable)"
"Cc1ccc(Sc2ccccc2N2CCNCC2)c(C)c1 [vortioxetine hydrobromide, 1-[2-(2,4-dimethyl-phenylsulfanyl)-phenyl]piperazine hydrobromide]",Instantaneous irritation,"oral cavity and tongue; Subject 1, 0-1 minute, powder equivalent to 20 mg of vortioxetine tasted, listed as Reference sample (2b), hydrobromide","+++ (+ + + Strong irritation, intolerable)"
same,Delayed irritation,"oral cavity and tongue; Subject 1, powder equivalent to 20 mg of vortioxetine tasted, listed as Reference sample (2b), hydrobromide",>30 min
same,Delayed irritation,"oral cavity and tongue; Subject 1, powder equivalent to 20 mg of vortioxetine tasted, listed as Reference sample (4b), hydrobromide",>30 min
same,Delayed irritation,"oral cavity and tongue; Subject 1, powder equivalent to 20 mg of vortioxetine tasted, listed as Reference sample (4c), hydrobromide",>30 min
same,Delayed irritation,"oral cavity and tongue; Subject 1, powder equivalent to 20 mg of vortioxetine tasted, listed as Reference sample (7b), hydrobromide",>30 min
same,Instantaneous irritation,"oral cavity and tongue; Subject 2, 0-1 minute, powder equivalent to 20 mg of vortioxetine tasted, listed as Reference sample (2b), hydrobromide","++ (+ + Irritating, tolerable)"
same,Delayed irritation,"oral cavity and tongue; Subject 2, powder equivalent to 20 mg of vortioxetine tasted, listed as Reference sample (2b), hydrobromide",>30 min
same,Delayed irritation,"oral cavity and tongue; Subject 2, powder equivalent to 20 mg of vortioxetine tasted, listed as Reference sample (4b), hydrobromide",>30 min
same,Delayed irritation,"oral cavity and tongue; Subject 2, powder equivalent to 20 mg of vortioxetine tasted, listed as Reference sample (4c), hydrobromide",>30 min
same,Delayed irritation,"oral cavity and tongue; Subject 2, powder equivalent to 20 mg of vortioxetine tasted, listed as Reference sample (7b), hydrobromide",>30 min
same,Instantaneous irritation,"oral cavity and tongue; Subject 3, 0-1 minute, powder equivalent to 20 mg of vortioxetine tasted, listed as Reference sample (2b), hydrobromide","+++ (+ + + Strong irritation, intolerable)"
same,Delayed irritation,"oral cavity and tongue; Subject 3, powder equivalent to 20 mg of vortioxetine tasted, listed as Reference sample (2b), hydrobromide",>30 min
same,Delayed irritation,"oral cavity and tongue; Subject 3, powder equivalent to 20 mg of vortioxetine tasted, listed as Reference sample (4b), hydrobromide",>30 min
same,Delayed irritation,"oral cavity and tongue; Subject 3, powder equivalent to 20 mg of vortioxetine tasted, listed as Reference sample (4c), hydrobromide",>30 min
same,Delayed irritation,"oral cavity and tongue; Subject 3, powder equivalent to 20 mg of vortioxetine tasted, listed as Reference sample (7b), hydrobromide",>30 min
same,Instantaneous irritation,"oral cavity and tongue; Subject 4, 0-1 minute, powder equivalent to 20 mg of vortioxetine tasted, listed as Reference sample (2b), hydrobromide","++ (+ + Irritating, tolerable)"
same,Instantaneous irritation,"oral cavity and tongue; Subject 4, 0-1 minute, powder equivalent to 20 mg of vortioxetine tasted, listed as Reference sample (4b), hydrobromide","+++ (+ + + Strong irritation, intolerable)"
same,Delayed irritation,"oral cavity and tongue; Subject 4, powder equivalent to 20 mg of vortioxetine tasted, listed as Reference sample (2b), hydrobromide",>30 min
same,Delayed irritation,"oral cavity and tongue; Subject 4, powder equivalent to 20 mg of vortioxetine tasted, listed as Reference sample (4b), hydrobromide",>30 min
same,Delayed irritation,"oral cavity and tongue; Subject 4, powder equivalent to 20 mg of vortioxetine tasted, listed as Reference sample (4c), hydrobromide",>30 min
same,Delayed irritation,"oral cavity and tongue; Subject 4, powder equivalent to 20 mg of vortioxetine tasted, listed as Reference sample (7b), hydrobromide",>30 min
same,Instantaneous irritation,"oral cavity and tongue; Subject 5, 0-1 minute, powder equivalent to 20 mg of vortioxetine tasted, listed as Reference sample (2b), hydrobromide","+++ (+ + + Strong irritation, intolerable)"
same,Instantaneous irritation,"oral cavity and tongue; Subject 5, 0-1 minute, powder equivalent to 20 mg of vortioxetine tasted, listed as Reference sample (4b), hydrobromide","+++ (+ + + Strong irritation, intolerable)"
same,Delayed irritation,"oral cavity and tongue; Subject 5, powder equivalent to 20 mg of vortioxetine tasted, listed as Reference sample (2b), hydrobromide",>30 min
same,Delayed irritation,"oral cavity and tongue; Subject 5, powder equivalent to 20 mg of vortioxetine tasted, listed as Reference sample (4b), hydrobromide",>30 min
same,Delayed irritation,"oral cavity and tongue; Subject 5, powder equivalent to 20 mg of vortioxetine tasted, listed as Reference sample (4c), hydrobromide",>30 min
same,Delayed irritation,"oral cavity and tongue; Subject 5, powder equivalent to 20 mg of vortioxetine tasted, listed as Reference sample (7b), hydrobromide",>30 min
same,Instantaneous irritation,"oral cavity and tongue; average of 5 subjects, powder equivalent to 20 mg of vortioxetine, listed as Reference sample (2b), hydrobromide","+++ (+ + + Strong irritation, intolerable)"
same,Instantaneous irritation,"oral cavity and tongue; average of 5 subjects, powder equivalent to 20 mg of vortioxetine, listed as Reference sample (4b), hydrobromide","+++ (+ + + Strong irritation, intolerable)"
same,Instantaneous irritation,"oral cavity and tongue; average of 5 subjects, powder equivalent to 20 mg of vortioxetine, listed as Reference sample (4c), hydrobromide","+++ (+ + + Strong irritation, intolerable)"
same,Instantaneous irritation,"oral cavity and tongue; average of 5 subjects, powder equivalent to 20 mg of vortioxetine, listed as Reference sample (7b), hydrobromide","+++ (+ + + Strong irritation, intolerable)"
same,Instantaneous irritation,"oral cavity and tongue; average of 5 subjects, powder equivalent to 20 mg of vortioxetine, listed as Reference sample (9b), hydrobromide","+++ (+ + + Strong irritation, intolerable)"
same,Instantaneous irritation,"oral cavity and tongue; average of 5 subjects, powder equivalent to 20 mg of vortioxetine, listed as Reference sample (10), hydrobromide","++ (+ + Irritating, tolerable)"
same,Instantaneous irritation,"oral cavity and tongue; average of 5 subjects, powder equivalent to 20 mg of vortioxetine, listed as Reference sample (11b), hydrobromide","+++ (+ + + Strong irritation, intolerable)"
same,Instantaneous irritation,"oral cavity and tongue; average of 5 subjects, powder equivalent to 20 mg of vortioxetine, listed as Reference sample (11c), hydrobromide","+++ (+ + + Strong irritation, intolerable)"
same,Instantaneous irritation,"oral cavity and tongue; average of 5 subjects, powder equivalent to 20 mg of vortioxetine, listed as Reference sample (14b), hydrobromide","+++ (+ + + Strong irritation, intolerable)"
same,solubility,[1],150 µg/mL
